Test results published in patent US20240025919A1, “AZA-TETRACYCLIC OXAZEPINE COMPOUNDS AND USES THEREOF” (Genentech, Inc., priority 2022, published 2024).

Experiments:
KRAS WT = KRAS WT (Homo sapiens (Human), UniProt P01116); assay: KRAS WT Biochemical Assay, BODIPY-GDP Exchange TR-FRET (Example 502; 0.06 nM KRAS WT, 15 nM GDP, 300 nM SOS1, 120-minute incubation); conditions: read-out: KRas HTRF IC50
In short: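 Biotin-tagged recombinant KRAS WT (0.06 nM) preloaded with 15 nM GDP and Tb-streptavidin, 10 min RT, then exchange started with 300 nM SOS1 plus 300 nM BODIPY-GDP in HEPES pH 7.5 buffer with MgCl2. TR-FRET 520/490 ratio read after 120 min; normalized to DMSO and full-inhibition control; IC50 from 4-parameter fit.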

KRAS G12D = KRAS G12D (Homo sapiens (Human), UniProt P01116, G12D); assay: KRAS G12D LoEnz Biochemical Assay, BODIPY-GDP Exchange TR-FRET (SOS1-mediated nucleotide exchange); conditions: read-out: KRas (G12D) GDP HTRF IC50
Sequence of KRAS G12D (P01116-2 other isoform, or with tags, fused parts or gaps G12D): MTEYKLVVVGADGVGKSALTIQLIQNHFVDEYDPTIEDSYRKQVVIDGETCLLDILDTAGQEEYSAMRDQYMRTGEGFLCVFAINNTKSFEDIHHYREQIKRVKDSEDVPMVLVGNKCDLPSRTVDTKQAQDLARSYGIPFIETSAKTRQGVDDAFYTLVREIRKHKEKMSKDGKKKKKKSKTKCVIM

Sequence of KRAS WT (P01116-2 other isoform, or with tags, fused parts or gaps): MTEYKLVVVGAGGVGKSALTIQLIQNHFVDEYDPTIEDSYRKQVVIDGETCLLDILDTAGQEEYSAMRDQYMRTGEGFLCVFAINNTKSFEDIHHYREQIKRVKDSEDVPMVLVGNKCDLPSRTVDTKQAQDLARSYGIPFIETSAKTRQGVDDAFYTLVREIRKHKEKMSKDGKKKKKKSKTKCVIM

Cc1cc(N)c(F)c(-c2nc3c4c(nc(OC[C@@H]5CC[C@H]6COCCN65)nc4c2F)N2C[C@H]4CC[C@H](N4)[C@H]2[C@H](C)O3)c1C(F)(F)F [Compound 97, 2-Fluoro-3-((5S,5aS,6S,9R)-1-fluoro-12-(((6S,8aS)-hexahydro-1H-pyrrolo[2,1-c][1,4]oxazin-6-yl)methoxy)-5-methyl-5a,6,7,8,9,10-hexahydro-5H-4-oxa-3,10a,11,13,14-pentaaza-6,9-methanonaphtho[1,8-ab]heptalen-2-yl)-5-methyl-4-(trifluoromethyl)aniline]
IC50 (KRAS WT): 43.7 nM
IC50 (KRAS G12D): 0.37 nM

Cc1cc(N)c(F)c(-c2nc3c4c(nc(OC[C@@H]5CC[C@H]6COCCN65)nc4c2F)N2C[C@H]4CC[C@H](N4)[C@H]2[C@H](C)O3)c1C1CC1 [Compound 98, 4-Cyclopropyl-2-fluoro-3-((5S,5aS,6S,9R)-1-fluoro-12-(((6S,8aS)-hexahydro-1H-pyrrolo[2,1-c][1,4]oxazin-6-yl)methoxy)-5-methyl-5a,6,7,8,9,10-hexahydro-5H-4-oxa-3,10a,11,13,14-pentaaza-6,9-methanonaphtho[1,8-ab]heptalen-2-yl)-5-methylaniline]
IC50 (KRAS WT): 553 nM
IC50 (KRAS G12D): 4.25 nM

Cc1cc(N)c(F)c(-c2nc3c4c(nc(OC[C@@H]5CC[C@H]6COCCN65)nc4c2F)N2C[C@H]4CC[C@H](N4)[C@H]2[C@H](C)O3)c1C=C(F)F [Compound 99, 4-(2,2-Difluorovinyl)-2-fluoro-3-((5S,5aS,6S,9R)-1-fluoro-12-(((6S,8aS)-hexahydro-1H-pyrrolo[2,1-c][1,4]oxazin-6-yl)methoxy)-5-methyl-5a,6,7,8,9,10-hexahydro-5H-4-oxa-3,10a,11,13,14-pentaaza-6,9-methanonaphtho[1,8-ab]heptalen-2-yl)-5-methylaniline]
IC50 (KRAS WT): 506 nM
IC50 (KRAS G12D): 2.09 nM

Cc1cc(N)c(F)c(-c2nc3c4c(nc(OC[C@@H]5CC[C@H]6COCCN65)nc4c2F)N2C[C@H]4CC[C@H](N4)[C@H]2[C@H](C)O3)c1C(F)(F)C(F)(F)F [Compound 100, 2-Fluoro-3-((5S,5aS,6S,9R)-1-fluoro-12-(((6S,8aS)-hexahydro-1H-pyrrolo[2,1-c][1,4]oxazin-6-yl)methoxy)-5-methyl-5a,6,7,8,9,10-hexahydro-5H-4-oxa-3,10a,11,13,14-pentaaza-6,9-methanonaphtho[1,8-ab]heptalen-2-yl)-5-methyl-4-(perfluoroethyl)aniline]
IC50 (KRAS WT): 495 nM
IC50 (KRAS G12D): 1.49 nM

Cc1cc(N)c(F)c(-c2nc3c4c(nc(OC[C@@H]5CC[C@H]6COCCN65)nc4c2F)N2C[C@H]4CC[C@H](N4)[C@H]2[C@H](C)O3)c1Cl [Compound 101, 4-Chloro-2-fluoro-3-((5S,5aS,6S,9R)-1-fluoro-12-(((6S,8aS)-hexahydro-1H-pyrrolo[2,1-c][1,4]oxazin-6-yl)methoxy)-5-methyl-5a,6,7,8,9,10-hexahydro-5H-4-oxa-3,10a,11,13,14-pentaaza-6,9-methanonaphtho[1,8-ab]heptalen-2-yl)-5-methylaniline]
IC50 (KRAS WT): 906 nM
IC50 (KRAS G12D): 3.19 nM

Cc1cc(N)c(Cl)c(-c2nc3c4c(nc(OC[C@@H]5CC[C@H]6COCCN65)nc4c2F)N2C[C@H]4CC[C@H](N4)[C@H]2[C@H](C)O3)c1C(F)(F)F [Compound 103, 2-Chloro-3-((5S,5aS,6S,9R)-1-fluoro-12-(((6S,8aS)-hexahydro-1H-pyrrolo[2,1-c][1,4]oxazin-6-yl)methoxy)-5-methyl-5a,6,7,8,9,10-hexahydro-5H-4-oxa-3,10a,11,13,14-pentaaza-6,9-methanonaphtho[1,8-ab]heptalen-2-yl)-5-methyl-4-(trifluoromethyl)aniline]
IC50 (KRAS WT): 224 nM
IC50 (KRAS G12D): 0.86 nM

C[C@@H]1Oc2nc(-c3cc(N)c(F)c(Cl)c3C(F)(F)F)c(F)c3nc(OC[C@@]45CCCN4C[C@H](F)C5)nc(c23)N2C[C@H]3CC[C@H](N3)[C@@H]12 [Compound 104, 3-Chloro-2-fluoro-5-((5S,5aS,6S,9R)-1-fluoro-12-(((2R,7aS)-2-fluorotetrahydro-1H-pyrrolizin-7a(5H)-yl)methoxy)-5-methyl-5a,6,7,8,9,10-hexahydro-5H-4-oxa-3,10a,11,13,14-pentaaza-6,9-methanonaphtho[1,8-ab]heptalen-2-yl)-4-(trifluoromethyl)aniline]
IC50 (KRAS WT): 0.71 nM
IC50 (KRAS G12D): 0.05 nM

C[C@@H]1Oc2nc(-c3[nH]c(=O)cc4ccccc34)c(F)c3nc(OC[C@@]45CCCN4C[C@H](F)C5)nc(c23)N2C[C@H]3CC[C@H](N3)[C@@H]12 [Compound 105, 1-((5S,5aS,6S,9R)-1-Fluoro-12-(((2R,7aS)-2-fluorotetrahydro-1H-pyrrolizin-7a(5H)-yl)methoxy)-5-methyl-5a,6,7,8,9,10-hexahydro-5H-4-oxa-3,10a,11,13,14-pentaaza-6,9-methanonaphtho[1,8-ab]heptalen-2-yl)isoquinolin-3(2H)-one]
IC50 (KRAS WT): 9700 nM
IC50 (KRAS G12D): 141 nM

C[C@@H]1Oc2nc(-c3c(C#N)c(N)c(F)c(F)c3C(F)(F)F)c(F)c3nc(OC[C@@]45CCCN4C[C@H](F)C5)nc(c23)N2C[C@H]3CC[C@H](N3)[C@@H]12 [Compound 107, 2-Amino-3,4-difluoro-6-((5S,5aS,6S,9R)-1-fluoro-12-(((2R,7aS)-2-fluorotetrahydro-1H-pyrrolizin-7a(5H)-yl)methoxy)-5-methyl-5a,6,7,8,9,10-hexahydro-5H-4-oxa-3,10a,11,13,14-pentaaza-6,9-methanonaphtho[1,8-ab]heptalen-2-yl)-5-(trifluoromethyl)benzonitrile]
IC50 (KRAS WT): 167 nM
IC50 (KRAS G12D): 1.39 nM

Cc1cc(N)c(F)c(-c2nc3c4c(nc(OC[C@@]56CCCN5C[C@H](F)C6)nc4c2F)N2C[C@H]4CC[C@H](N4)[C@H]2[C@H](C)O3)c1I [Compound 108, 2-Fluoro-3-((5S,5aS,6S,9R)-1-fluoro-12-(((2R,7aS)-2-fluorotetrahydro-1H-pyrrolizin-7a(5H)-yl)methoxy)-5-methyl-5a,6,7,8,9,10-hexahydro-5H-4-oxa-3,10a,11,13,14-pentaaza-6,9-methanonaphtho[1,8-ab]heptalen-2-yl)-4-iodo-5-methylaniline]
IC50 (KRAS WT): 37.6 nM
IC50 (KRAS G12D): 0.325 nM

C#Cc1c(F)ccc2cc(N)cc(-c3nc4c5c(nc(OC[C@]67CCN6CC(F)(F)C7)nc5c3F)N3C[C@H]5CC[C@H](N5)[C@H]3[C@H](C)O4)c12 [Compound 110, 4-((5S,5aS,6S,9R)-12-(((R)-3,3-Difluoro-1-azabicyclo[3.2.0]heptan-5-yl)methoxy)-1-fluoro-5-methyl-5a,6,7,8,9,10-hexahydro-5H-4-oxa-3,10a,11,13,14-pentaaza-6,9-methanonaphtho[1,8-ab]heptalen-2-yl)-5-ethynyl-6-fluoronaphthalen-2-amine]
IC50 (KRAS WT): 7.75 nM
IC50 (KRAS G12D): 0.15 nM

Cc1c(F)c(N)cc(-c2nc3c4c(nc(OC[C@@H]5CC[C@H]6COCCN65)nc4c2F)N2C[C@H]4CC[C@H](N4)[C@H]2[C@H](C)O3)c1Cl [Compound 111, 4-Chloro-2-fluoro-5-((5S,5aS,6S,9R)-1-fluoro-12-(((6S,8aS)-hexahydro-1H-pyrrolo[2,1-c][1,4]oxazin-6-yl)methoxy)-5-methyl-5a,6,7,8,9,10-hexahydro-5H-4-oxa-3,10a,11,13,14-pentaaza-6,9-methanonaphtho[1,8-ab]heptalen-2-yl)-3-methylaniline]
IC50 (KRAS WT): 108 nM
IC50 (KRAS G12D): 0.31 nM

Cc1nc(N)cc(-c2nc3c4c(nc(OC[C@@H]5CC[C@H]6COCCN65)nc4c2F)N2C[C@H]4CC[C@H](N4)[C@H]2[C@H](C)O3)c1C(F)(F)F [Compound 112, 4-((5S,5aS,6S,9R)-1-fluoro-12-(((6S,8aS)-hexahydro-1H-pyrrolo[2,1-c][1,4]oxazin-6-yl)methoxy)-5-methyl-5a,6,7,8,9,10-hexahydro-5H-4-oxa-3,10a,11,13,14-pentaaza-6,9-methanonaphtho[1,8-ab]heptalen-2-yl)-6-methyl-5-(trifluoromethyl)pyridin-2-amine]
IC50 (KRAS WT): 62.8 nM
IC50 (KRAS G12D): 0.48 nM

Cc1c(F)c(N)cc(-c2nc3c4c(nc(OC[C@@H]5CC[C@H]6COCCN65)nc4c2F)N2C[C@H]4CC[C@H](N4)[C@H]2[C@H](C)O3)c1CC(F)(F)F [Compound 113, 2-fluoro-5-((5S,5aS,6S,9R)-1-fluoro-12-(((6S,8aS)-hexahydro-1H-pyrrolo[2,1-c][1,4]oxazin-6-yl)methoxy)-5-methyl-5a,6,7,8,9,10-hexahydro-5H-4-oxa-3,10a,11,13,14-pentaaza-6,9-methanonaphtho[1,8-ab]heptalen-2-yl)-3-methyl-4-(2,2,2-trifluoroethyl)aniline]
IC50 (KRAS WT): 65.6 nM
IC50 (KRAS G12D): 0.31 nM

C[C@@H]1Oc2nc(-c3cccc4ccc(N)nc34)c(F)c3nc(OC[C@@]45CCCN4C[C@H](F)C5)nc(c23)N2C[C@H]3CC[C@H](N3)[C@@H]12 [Compound 114, 8-((5S,5aS,6S,9R)-1-Fluoro-12-(((2R,7aS)-2-fluorotetrahydro-1H-pyrrolizin-7a(5H)-yl)methoxy)-5-methyl-5a,6,7,8,9,10-hexahydro-5H-4-oxa-3,10a,11,13,14-pentaaza-6,9-methanonaphtho[1,8-ab]heptalen-2-yl)quinolin-2-amine]
IC50 (KRAS WT): 36700 nM
IC50 (KRAS G12D): 135 nM

C[C@@H]1Oc2nc(-c3cc(N)cc(C(F)(F)F)c3C(F)(F)F)c(F)c3nc(OC[C@@]45CCCN4C[C@H](F)C5)nc(c23)N2C[C@H]3CC[C@H](N3)[C@@H]12 [Compound 115, 3-((5S,5aS,6S,9R)-1-fluoro-12-(((2R,7aS)-2-fluorotetrahydro-1H-pyrrolizin-7a(5H)-yl)methoxy)-5-methyl-5a,6,7,8,9,10-hexahydro-5H-4-oxa-3,10a,11,13,14-pentaaza-6,9-methanonaphtho[1,8-ab]heptalen-2-yl)-4,5-bis(trifluoromethyl)aniline]
IC50 (KRAS WT): 34.1 nM
IC50 (KRAS G12D): 0.39 nM
